Assay [1] has as its target T1, interaction between GMPPNP-bound recombinant K-Ras4B G12C mutant protein and cRAF RAS-binding domain (cRAF-RBD) (Homo sapiens, UniProt P01116, G12C).
T1 construct: His-tag (N)
Description: Inhibitory activity on interaction between KRAS G12C and cRAF (Alpha technology). In a few lines: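 His-tagged K-Ras4B G12C (aa 1-169), GMPPNP-loaded, preincubated with compound 1 h at 25° C in pH 7.5 Tris buffer with MgCl2, TCEP, Tween 20. cRAF-RBD (aa 50-132) and Alpha reagents then added for 1.5 h; Alpha signal normalised to DMSO (0%) and GDP-bound KRAS (100%); IC50 from dose titration.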

Assay [2] deals with MIA PaCa-2 cells. Description: Growth inhibition activity on KRAS-G12C mutant cell line (CellTiter-Glo 3D). The format is cell-based, human. As to conditions: MIA PaCa-2, 3-day culture with compound. In a few lines: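 MIA PaCa-2 cells in RPMI1640 with 10% FBS, U-bottom wells, cultured 1 day before compound (0.2% DMSO final), then 3 days at 37 °C, 5% CO2. Viability by CellTiter-Glo 3D luminescence; growth inhibition versus untreated wells gives IC50 (nM).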
In general terms: In ATP-based viability assays light output follows the ATP content of the culture.

Setting [3] is: GMPPNP-bound KRAS G12C incubated with compound 25° C. 1 hour, Table 2-1, read-out: IC50.
[4] abbreviates: Homo sapiens, MIA PaCa-2, 72 h, Table 3-1.
Where [5] appears, read: IC50, GMPPNP-bound KRAS G12C incubated with compound 25° C. 1 hour, Table 2-1.
Where [6] appears, read: IC50, GMPPNP-bound KRAS G12C incubated with compound 25° C. 1 hour, Table 2.
The mark [7] stands for this setting: Homo sapiens, MIA PaCa-2, 72 h, Table 3.

Read-outs that look alike come from different tables or passages of the source.

T1 sequence (P01116 with tags, fused parts or gaps isoform P01116-2 G12C): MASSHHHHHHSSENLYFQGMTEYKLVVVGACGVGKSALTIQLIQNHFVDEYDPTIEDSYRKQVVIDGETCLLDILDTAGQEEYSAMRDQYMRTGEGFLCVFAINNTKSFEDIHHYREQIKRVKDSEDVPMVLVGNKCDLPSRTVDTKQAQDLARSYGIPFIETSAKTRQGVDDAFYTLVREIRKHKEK

One may read the IC50 as the concentration that inhibits the measured activity by half. Take `COCc1nc2c3c(c(OC)cc2n1C)-c1cccn2c(C(=O)c4cc(F)c(NC(=O)/C=C/CN[C@H]5CCOC5)c(F)c4)c(C)c(c12)CCN3C` (single isomer, unassigned) [Example 231]: the IC50 in assay [1] (setting [3]) was determined as 101 nM; in assay [2] (setting [4]), 73.4 nM.

As to `CC(O)[C@]1(C)CCCN1C/C=C/C(=O)Nc1c(F)cc(C(=O)c2cc3c4c(cccn24)-c2c(C(F)(F)F)cc4c(ncn4C)c2N(C)CC3)cc1F` (single isomer, unassigned) [Example 205], the IC50 in assay [1] (setting [3]) turned out to be 29.5 nM; in assay [2] (Table 3-1), 8.55 nM.

Regarding `Cc1cc2c(nc(C)n2C)c2c1-c1cccc3c(C(=O)c4cc(F)c(NC(=O)/C=C/CNC5(C)COC5)c(F)c4)cn(c13)CCN2C` (single isomer, unassigned) [Example 65, (E)-N-(2,6-difluoro-4-(6,8,9,11-tetramethyl-8,11,12,13-tetrahydro-imidazo[4″,5″:5′,6′]benzo-[1′,2′:5,6][1,4]diazocino-[7,8,1-hi]indole-2-carbon-yl)phenyl)-4-((3-methyl-oxetan-3-yl)amino)but-2-enamide], the figures for the IC50 in assay [1] (setting [5]) and in assay [2] (setting [4]) were 69.5 nM and 95.1 nM, respectively.

As for `CO[C@H]1CC[C@H](NC/C=C/C(=O)Nc2c(F)cc(C(=O)c3cn4c5c(cccc35)-c3c(Cl)cccc3OCCC4)cc2F)CC1` (single isomer, unassigned) [Example 4-2, (E)-N-(4-(11-chloro-5,6-dihydro-4H-benzo[8,9][1,5]oxazonino[7,6,5-hi]indole-1-carbonyl)-2,6-difluorophenyl)-4-(((1,4r)-4-methoxycyclohexyl)amino)but-2-enamide], the IC50 in assay [1] (setting [6]) was 290 nM; in assay [2] (Table 3), 260 nM.

Regarding `CO[C@H]1CC[C@H](NC/C=C/C(=O)Nc2c(F)cc(C(=O)c3cn4c5c(cccc35)-c3c(C)cc5c(nc(C)n5C)c3OCC3(CC3)C4)cc2F)CC1` (single isomer, unassigned) [Example 21-1, (E)-N-(2,6-difluoro-4-(6′,8′,9′-trimethyl-8′H, 12′H,14′H-spiro[cyclopropane-1,13-imidazo[4″,5″:3′,4′]benzo[1′,2:8,9][1,5]oxazonino[7,6,5-hi]indole]-2′-carbonyl)phenyl)-4-(((1r,4t)-4-methoxycyclohexyl)amino)but-2-enamide], the IC50 is 44 nM in assay [1] (setting [6]) and 22 nM in assay [2] (Table 3).

For the compound `CCNC/C=C/C(=O)Nc1c(F)cc(C(=O)c2cc3c4c(cccn24)-c2c(C(F)(F)F)cc4c(ncn4C)c2N(C)CC3)cc1F` [Example 111, (E)-N-(4-(9,12-dimethyl-7-(trifluoromethyl)-9,12,13,14-tetrahydro-imidazo[4″,5″:5′,6′]benzo-[1′,2′:2,3]azocino[4,5,6-hi]indolizine-2-carbonyl)-2,6-difluorophenyl)-4-(ethylamino)but-2-enamide], the results for the IC50 in assay [1] (setting [3]) and in assay [2] (setting [4]) were 31.3 nM and 8.95 nM, respectively.

On to `CO[C@H]1CC[C@H](NC/C=C/C(=O)Nc2c(F)cc(C(=O)c3cn4c5c(cccc35)-c3c(cccc3C(F)(F)F)OCC4)cc2F)CC1` (single isomer, unassigned) [Example 11-1], for which the IC50 in assay [1] (setting [6]) is above 6700 nM; in assay [2] (Table 3) it was 7800 nM.

In the case of `Cc1nc2c3c(c(C(F)(F)F)cc2n1C)-c1cccn2c(C(=O)c4cc(F)c(NC(=O)/C=C/CNC5(C)CCOCC5)c(F)c4)cc(c12)CCO3` [Example 39], the IC50 in assay [1] (GMPPNP-bound KRAS G12C incubated with compound 25° C. 1 hour, Table 2, read-out: IC50) amounted to 8 nM; in assay [2] (setting [7]), 12 nM.

Take `CN1CCc2cc(C(=O)c3cc(F)c(NC(=O)/C=C/CNC4(C)CC4)c(F)c3)n3cccc(c23)-c2c(C(F)(F)F)cc3[nH]cnc3c21` (atropisomer, axis not shown) [Example 239, (E)-N-(2,6-difluoro-4-(12-methyl-7-(trifluorometh-yl)-9,12,13,14-tetrahydro-imidazo[4″,5″:5′,6′]benzo-[1′,2′:2,3]azocino[4,5,6-hi]indolizine-2-carbonyl)-phenyl)-4-((1-methyl-cyclopropyl)amino)but-2-enamide]: the 50% inhibitory concentration (IC50) in assay [1] (setting [3]) was determined as 18.2 nM; in assay [2] (setting [4]), 9.69 nM.

As to `CO[C@H]1CC[C@H](NC/C=C/C(=O)Nc2c(F)cc(C(=O)c3cn4c5c(cccc35)-c3c(C(F)(F)F)ccc(=O)n3CCC4)cc2F)CC1` [Example 49, (E)-N-(2,6-difluoro-4-(8-oxo-11-(trifluoromethyl)-5,6-dihydro-4H,8H-pyrido[2′,1′:4,5][1,5]diazocino[3,2,1-hi]indole-1-carbonyl)phenyl-4-((1r,4r)-4-methoxycyclohexyl)amino)but-2-enamide], the IC50 in assay [1] (setting [6]) is 260 nM; in assay [2] (setting [7]) it was 150 nM.

Take `COc1cc2c(nc(C(F)(F)F)n2C)c2c1-c1cccn3c(C(=O)c4cc(F)c(NC(=O)/C=C/CN[C@H]5CCOC5)c(F)c4)cc(c13)CCN2C` (single isomer, unassigned) [Example 168]: the IC50 in assay [1] (setting [3]) stood at 43.8 nM; in assay [2] (setting [4]) it was 15.6 nM.

As for `Cc1cc2c(nc(C)n2C)c2c1-c1cccc3c(C(=O)c4cc(F)c(NC(=O)/C=C/CNC(C)(C)C(=O)N(C)C)c(F)c4)cn(c13)CCN2C` [Example 103], the IC50 in assay [1] (setting [5]) was 99.2 nM; in assay [2] (setting [4]) it was 303 nM.

`COCc1nc2c3c(c(C(F)F)cc2n1C)-c1cccn2c(C(=O)c4cc(F)c(NC(=O)/C=C/CNC5(C)COC5)c(F)c4)cc(c12)CCN3C` [Example 224, (E)-N-(4-(7-(difluoromethyl)-10-(methoxymethyl)-9,12-dimethyl-9,12,13,14-tetrahydroimidazo[4″,5″:5′,6′]benzo[1′,2′:2,3]azocino[4,5,6-hi]indolizine-2-carbonyl)-2,6-difluorophenyl)-4-((3-methyloxetan-3-yl)amino)but-2-enamide]: the half-inhibitory concentration (IC50) is 28.2 nM in assay [1] (setting [3]) and 17.8 nM in assay [2] (setting [4]).

Take `CO[C@H]1CC[C@H](NC/C=C/C(=O)Nc2c(F)cc(C(=O)c3cn4c5c(cccc35)-c3c(cc(N5CCCC5=O)cc3C(F)(F)F)OCC4)cc2F)CC1` (single isomer, unassigned) [Example 5-1, (E)-N-(2,6-difluoro-4-(8-(2-oxopyrrolidin-1-yl)-10-(trifluoromethyl)-4,5-dihydrobenzo[7,8][1.4]oxazocino[6,5,4-hi]indole-1-carbonyl)phenyl)-4-(((1r,4t)-4-methoxycyclohexyl)amino)but-2-enamide]: the IC50 in assay [1] (setting [6]) worked out at 53 nM; in assay [2] (Table 3) it was 14 nM.

On to `CO[C@H]1CC[C@H](NC/C=C/C(=O)Nc2ccc(C(=O)c3cc4c5c(cccn35)-c3c(C(F)(F)F)cc5c(nc(C)n5C)c3OCC4)cc2F)CC1` [Example 67, (E)-N-(4-(9,10-dimethyl-7-(trifluoromethyl)-13,14-dihydro-9H-imidazo-[4″,5″:5′,6′]benzo[1′,2′: 2,3]oxocino[4,5,6-hi]-indolizine-2-carbonyl)-2-fluorophenyl)-4-(((1r,4r)-4-methoxycyclohexyl)-amino)but-2-enamide], for which the IC50 amounted to 22 nM in assay [1] (setting [3]) and 8.22 nM in assay [2] (setting [4]).

`COCCn1cnc2c3c(c(C(F)(F)F)cc21)-c1cccn2c(C(=O)c4cc(F)c(NC(=O)C=CCNC5(C)CC5)c(F)c4)cc(c12)CCN3C` [Example 215, (E)-N-(2,6-difluoro-4-(9-(2-methoxyethyl)-12-methyl-7-(trifluoromethyl)-9,12,13,14-tetrahydroimidazo[4″,5″:5′,6′]benzo[1′,2′:2,3]azocino[4,5,6-hi]indolizine-2-carbonyl)phenyl)-4-((1-methylcyclopropyl)amino)but-2-enamide]: the figures for the IC50 in assay [1] (setting [3]) and in assay [2] (setting [4]) were 18.3 nM and 3.4 nM, respectively.

For the origin of these results see US20240262842A1, “SMALL MOLECULE INHIBITORS OF KRAS G12C MUTANT” (Merck Sharp & Dohme LLC, priority 2021, published 2024).
